Common to all, as to type: binding
For test [1], the target named is T1, PIN1 (Homo sapiens, UniProt Q13526).
T1 construct: polyhistidine (N); made in house; host or cells: Escherichia coli BL21 (DE3)
Description: photo-CIDNP 1D 1H NMR fragment screening (polarization ratio) against PIN1. How it is done:
The combination of these two effects yields the quenching of the photo-CIDNP hyperpolarized signal in the case of binding to a protein, as L decreases and R1,eff increases.
It is also overexpressed in many human cancer cells.[16] It is thus regarded as a potential drug target, and several studies attempted to discover hits and unravel the structure–activity relationship.[3],[4],[36] […] The NMR experiments were performed using single-scan NMR experiments, comprising light irradiation, an excitation pulse, and a water suppression scheme, as described previously.[13] Although each experiment was recorded in only 2 s, the limiting step was the sample tube exchange. Indeed, the optic fiber needed to be plugged into the tubes while changing the samples, which required ca. 15 s per tube using a house-made connector tightening the tube and the optic fiber with O-rings (Figure S2). Removing the sample from and bringing the new sample into the spectrometer requires an additional 30 s, and a shimming step must be performed for each new tube (30 s).
(§1) As proposed in the theoretical part, the photo-CIDNP traces were recorded in the presence and absence of PIN1. The peak intensity and chemical shifts were analyzed pairwise to identify the hits. […] The reference apo-PIN1 sample was spiked with 1.9 μL of DMSO to compensate for the DMSO that is introduced upon fragment addition, as the fragments are stored in stock solutions of 5 mM 90% DMSO-d6 and 10% D2O.
The laser used was a Thorlabs L450P1600MM, a diode laser emitting at 450 nm. The laser light was coupled (using appropriate coupling optics) into an optical fiber (Thorlabs, FG950UEC) of length 10 m and a diameter of 0.95 mm. The end of the fiber was inserted into the sample solution inside the 3 mm NMR glass tube to a depth of about 5 mm above the NMR coil region. The library QC and the control binding experiments for PIN1 were measured on a Bruker Avance III HD 600 MHz spectrometer equipped with a cryoprobe and SampleJet.

The target in test [2] is T1, PIN1. The test can be described thus: [15N,1H]-HSQC hit validation (chemical shift perturbations) on 15N-labeled PIN1. To be noted: 50 μM 15N-labeled PIN1, 200 μM fragment. How it is done:
as §1
For the control binding experiments using ligand-induced chemical shift perturbation analysis, standard [^15N, ^1H]-HSQC spectra were measured. […] Processing was done with a shifted cosine window function for both dimensions. […] The spinlock times were set at 10 and 400 ms.

Test [3] deals with T1, PIN1. Description: saturation transfer difference (STD) NMR, PIN1. Details: key to STD: The observation of ligand signals in the STD NMR spectra detects a protein–ligand interaction; (+); the absence of a signal fails to detect protein–ligand interaction (−). The following applies: 200 μM ligand with 20 μM protein. As to the method:
(§2) For comparison, the signal decay during a T1ρ NMR experiment was measured at the same sample conditions as the photo-CIDNP experiments (Table 2). The signal decay between two T1ρ relaxation delays of 10 and 400 ms is measured in the absence and presence of the PIN1 protein. The increase in signal decay is calculated as the ratio of the integral’s ratio, i.e., (Γ400ms/Γ10ms)PL/(Γ400ms/Γ10ms)L. The most affine binders, compounds 1 and 13, show a significant reduction of the T1ρ decay ratio upon PIN1 addition, witnessing an increase in the relaxation decay. […] The signal-to-noise of the T1ρ spectra were ca. 300 for a number of transients of 512, corresponding to a measurement time of 25 min, while the photo-CIDNP experiments provided a signal-to-noise of ca. 100 for a single-scan experiment corresponding to a two second’s experiment. […] The signal-to-noise of the STD NMR experiments[1] was only 25 and 19 for compounds 1 and 13, respectively, after 50 min measurement corresponding to a 512 transient’s experiment.
(§3) For the control binding experiments using ligand-induced chemical shift perturbation analysis, standard [^15N, ^1H]-HSQC spectra were measured. The detailed conditions for the 2D experiments acquired at 600 MHz ^1H NMR frequency were the 100 μM ^15N-labeled PDZ2 domain in the absence and presence of equimolar peptide in PDZ2 buffer and at a temperature of 298 K and 50 μM ^15N-labeled PIN1 in the absence and presence of 200 μM ligands in PIN1 buffer and at a temperature of 298 K, respectively. Typically, 220 (t1,max (^15N) = 47.6 ms) × 1024 (t2,max (^1H) = 60.8 ms) complex points, an interscan delay of 0.8 s, and 12 scans per increment were measured. The data was zero–filled to 2048 points in the direct proton dimension and to 256 points in the ^15N–dimension. Processing was done with a shifted cosine window function for both dimensions. […] The spinlock times were set at 10 and 400 ms. The STD experiments were measured at 298 K with 16,384 (tmax (^1H) = 974 ms) complex points and 512 scans per increment. The on-resonance saturation pulse was set at 0 ppm, and the off-resonance saturation pulse was set to 40 ppm with a saturation time of 1 s.

Test [4] deals with T1, PIN1. Description: T1ρ relaxation NMR experiment, PIN1. How it is done: as §2, §3

The structures appear in SMILES notation.

T1 sequence (Q13526 whole entry): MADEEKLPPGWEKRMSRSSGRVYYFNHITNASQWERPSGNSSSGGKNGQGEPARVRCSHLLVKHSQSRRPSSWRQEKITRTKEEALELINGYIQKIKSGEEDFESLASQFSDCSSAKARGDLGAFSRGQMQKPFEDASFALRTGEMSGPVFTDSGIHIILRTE

Regarding `Cc1cccc(-c2nc(C)c(C(=O)O)[nH]2)c1` [Compound 13, reference compound], the polarization ratio at PIN1 [1] (50 μM ligand, ±25 μM PIN1, 20 μM fluorescein, 0 = total binding, 1 = no interaction, hit <0.8) is on record as 0.38; on PIN1 [1] (low concentration: 20 μM ligand (compound 1: 5 μM), ±2 μM PIN1, single scan) it was 0.73. Further, at PIN1 [2], the “fragment-induced CSPs in [15N,1H]-HSQC” value was “strong CSPs”. In addition, on PIN1 [2] (median only of signals showing CSP), the “median CSP” value turned out to be 0.119. Also, the STD result on PIN1 [3] is “+”. The “STD NMR observation” value at PIN1 [3] (512 transients) is on record as “shows a signal”. Further, the T1ρ decay ratio was 0.45 at PIN1 [4] (200 μM ligand, ±20 μM protein, (Γ400ms/Γ10ms)PL/(Γ400ms/Γ10ms)L) and 0.76 on PIN1 [4] (low concentration, same sample conditions: 20 μM ligand (compound 1: 5 μM), ±2 μM PIN1).

The values are drawn from article PMC10251509, “Ultrafast Fragment Screening Using Photo-Hyperpolarized (CIDNP) NMR” (Journal of the American Chemical Society, 2023).
